Here are results for 24 compounds from patent US20060106032A1, “Synthesis of N2 - (substituted arylmethyl) -3- (substituted phenyl) indazoles as novel anti-angiogenic agents” (YUNG SHIN PHARM. IND. CO., LTD., priority 2004, published 2006).

Series [1] concerns Human umbilical vein endothelial cells (HUVECs). In words: [3H]thymidine incorporation assay: VEGF-induced cell proliferation (DNA synthesis) of HUVECs. It is filed as cell-based. The settings on record: VEGF 10 ng/mL. How it is done: Human umbilical vein endothelial cells were incubated in the absence (basal and control) or presence of tested sample (YD-3, 10, 15, 17, 21, 25, 26) with 30 μM, and then vascular endothelial growth factor (VEGF) was added (except for basal) to induce DNA synthesis, which was detected using [^3H] thymidine incorporation assay.
Human umbilical vein endothelial cells were incubated in the absence (basal and control) or presence of tested sample (YD-3, 10, 15, 17, 21, 25, 26) with 10 μM, and then vascular endothelial growth factor (VEGF) was added (except for basal) to inducd DNA synthesis, which was detected using [^3H] thymidine incorporation assay. Means±S.E. (n=5) were presented.
Human umbilical vein endothelial cells were incubated in the absence (basal and control) or presence of tested sample (YD-3, 10, 15, 17, 21, 25, 26) with 1 μM, and then vascular endothelial growth factor (VEGF) was added (except for basal) to inducd DNA synthesis, which was detected using [^3H] thymidine incorporation assay. Means±S.E. (n=5) were presented.
(§1) Human umbilical vein endothelial cells (HUVECS) were isolated according to the protocols from Jaffe et al. and obtained from human umbilical cord veins with collagenase and cultured in 75 cm^2 plastic flasks in M199 containing 20% FBS, 15 μg/mL endothelial cell growth supplements (ECGs). Confirmation of their identity as endothelial cells was provided by detection of CD31 (PECAM-1), assessed by immunostaining. Experiments were conducted on HUVECs that had used in passage 2 to 5.
Confluent HUVECs were trypsinized, suspended in DMEM supplemented with 20% FBS, and seeded at 1.0×10^4 cells per well into 96-well plates. After 24 h, the cells were washed twice with PBS and starved with 2% FBS-M199 medium for 24 h. The cells were incubated with or without indicated reagents and growth factors (VEGF; 10 ng/mL) for 24 h and harvested. Before the harvest, cells were incubated with [^3H]thymidine (2 μCi/mL) for 4 h, harvested with Filter-Mate (Packard), and incorporated radioactivity was determined.
The effect of tested compounds on VEGF-induced cell proliferation of HUVECs was assessed with the [^3H]thymidine incorporation assay, and the results were illustrated in FIG. 5-FIG. 7.

The subject of series [2] is VEGF-induced angiogenesis in Matrigel plug. In words: In vivo Matrigel plug assay (neovascular formation, hemoglobin concentration). The settings on record: nude mice, FIG. 9; for anti-angiogenic activity in Matrigel plug assay (hemoglobin concentration): 150 ng/ml VEGF plug, oral, seven-day administration. How it is done:
Nude mice were subcutaneously injected with a Matrigel plug containing 150 ng/ml vascular endothelial growth factor (VEGF). Vehicle or tested sample (YD-3, 10, 15, 17, 21, 25, 26) was orally administered into the mice. After a seven-day administration, the animals were euthanized and the plugs were cut of the mice for the measurement of angiogenic effect using the hemoglobin concentration as the parameter by means of a hemoglobin detection kit (Sigma). Means±S.E. (n=3) were presented. Nude mice (6 weeks of age) were given s.c. injections of 500 μL of Matrigel (Becton Dickinson, Bedford, Mass.) at 4° C. with or without YC-1 and growth factor (150 ng/mL VEGF). After injection, the Matrigel rapidly formed a plug. After 7 days, the skin of the mouse was easily pulled back to expose the Matrigel plug, which remained intact. After quantitative differences were noted and photographed, hemoglobin was measured, as an indication of blood vessel formation, using the Drabkin method (Drabkin reagent kit 525, Sigma, St. Louis, Mo.). The concentration of hemoglobin was calculated from a known amount of hemoglobin assayed in parallel. The in vivo Matrigel plug assay was used in this study to determine quantitative the anti-angiogenic effect of tested compounds.

Series [3] deals with Human umbilical vein endothelial cells (HUVECs). In words: VEGF-induced tube formation of HUVECs on Matrigel. The format is cell-based. The settings on record: FIG. 8; for blockage of VEGF-induced tube formation of HUVECs: Matrigel-coated chamberslide. How it is done: FIG. 8 show photographs of the results of in vitro assay (inhibition of tube formation). Human umbilical vein endothelial cells were cultured onto chamberslide, which was precoated with Matrigel (10 mg/ml). Cells were treated without (basal and control) or with tested sample (YD-3, 10, 15, 17, 21, 25, 26) and then vascular endothelial growth factor (VEGF) was added to induce tube formation. All photographs were taken at 100×magnification.
as §1

Series [4] concerns angiogenesis. The series is described as follows: Evaluation for anti-angiogenic activities (overall summary). To be noted: summary statement. How it is done: 3-(4-Methylphenyl)-1H-indazole (10) and N^2-(substituted benzyl)-3-(4-methylphenyl)indazoles (15, 17, 21, 25, 26) were evaluated for anti-angiogenic activities.
In this study, 3-(4-methylphenyl)-1H-indazole (10) and five of the above mentioned N^2-regioisomers, namely, compounds 15, 17, 21, 25 and 26 were selected for evaluating their effects on VEGF-induced cell proliferation, on VEGF-induced tube formation of HUVECs in vitro, and on neovascular formation in vivo.

As a reminder, the melting point is the temperature of the solid-liquid transition.

`Cc1ccc(-c2n[nH]c3ccccc23)cc1` [Compound 10, 3-(4-Methylphenyl)-1H-indazole] yielded a melting point of 106 to 107 °C. The “inhibitory effect on VEGF-induced cell proliferation of HUVECs ([3H]thymidine incorporation)” value (from here on “inhibitory effect”) in series [1] (10 μM, FIG. 6) is recorded as “significant inhibitory effect”. In series [1] (30 μM, FIG. 5), the “inhibitory effect” value is reported as “significant inhibitory effect”.

`CCOC(=O)c1ccc(-c2n[nH]c3ccccc23)cc1` [Compound 11, Ethyl 4-(1H-indazol-3-yl)benzoate] registered a melting point of 133 to 135 °C.

`Cc1ccc(-c2nn(Cc3ccc(Cl)cc3)c3ccccc23)cc1` [Compound 14, 1-(4-Chlorobenzyl)-3-(4-methylphenyl)-1H-indazole] had a melting point of 79.9 to 82.3 °C.

Take `Cc1ccc(-c2c3ccccc3nn2Cc2ccc(Cl)cc2)cc1` [Compound 15, 2-(4-Chlorobenzyl)-3-(4-methylphenyl)-2H-indazole]: the melting point lay in the range of 107.4 to 109.5 °C. Also, in series [2], the “anti-angiogenic activity in Matrigel plug assay (hemoglobin concentration)” value is listed as “significant anti-angiogenic activities” and the “anti-angiogenic potency in Matrigel plug assay compared with positive control YD-3” value is “superior potency than the positive control YD-3”. Besides, in series [1] (1 μM), the “activity on VEGF-induced cell proliferation of HUVECs compared with positive control YD-3” value is recorded as “better activity than positive control YD-3”. Further, in series [1] (10 μM, FIG. 6), the “inhibitory effect” value is given as “significant inhibitory effect”. Further, the “inhibitory effect” value in series [1] (30 μM, FIG. 5) is listed as “significant inhibitory effect”. In series [3], the “inhibitory activity on tube formation compared with other tested compounds and YD-3” value was “more potent than other tested compounds and YD-3”; the “blockage of VEGF-induced tube formation of HUVECs” value (“blockage” below) is on record as “significant blockage”. Further, the “anti-angiogenic activity (overall)” value in series [4] is “significant anti-angiogenic activity”.

In turn, `Cc1ccc(-c2nn(Cc3cccc(Cl)c3)c3ccccc23)cc1` [Compound 16, 1-(3-Chlorobenzyl)-3-(4-methylphenyl)-1H-indazole] returned a melting point of 66.6 to 68 °C.

`Cc1ccc(-c2c3ccccc3nn2Cc2cccc(Cl)c2)cc1` [Compound 17, 2-(3-Chlorobenzyl)-3-(4-methylphenyl)-2H-indazole]: the melting point fell in the range of 98 to 100 °C. Further, the “anti-angiogenic activity in Matrigel plug assay (hemoglobin concentration)” value in series [2] was “significant anti-angiogenic activities”. Also, in series [1] (10 μM, FIG. 6), the “inhibitory effect” value is reported as “significant inhibitory effect”. Also, in series [1] (30 μM, FIG. 5), the “inhibitory effect” value is given as “significant inhibitory effect”. Also, the “blockage” value in series [3] is recorded as “significant blockage”.

The compound `Cc1ccc(-c2nn(Cc3ccccc3Cl)c3ccccc23)cc1` [Compound 18, 1-(2-Chlorobenzyl)-3-(4-methylphenyl)-1H-indazole] returned a melting point of 77.6 to 78.8 °C.

`Cc1ccc(-c2c3ccccc3nn2Cc2ccccc2Cl)cc1` [Compound 19, 2-(2-Chlorobenzyl)-3-(4-methylphenyl)-2H-indazole] yielded a melting point of 131.3 to 137.8 °C.

`Cc1ccc(Cn2nc(-c3ccc(C)cc3)c3ccccc32)cc1` [Compound 20, 1-(4-Methylbenzyl)-3-(4-methylphenyl)-1H-indazole]: the melting point fell in the range of 79.6 to 82.3 °C.

With `Cc1ccc(-c2nn(Cc3ccccc3C)c3ccccc23)cc1` [Compound 22, 1-(2-Methylbenzyl)-3-(4-methylphenyl)-1H-indazole], the melting point lay within 114.1 to 116.5 °C.

With `Cc1ccc(-c2c3ccccc3nn2Cc2ccccc2C)cc1` [Compound 23, 2-(2-Methylbenzyl)-3-(4-methylphenyl)-2H-indazole], the melting point is 125 to 128.8 °C.

As to `Cc1ccc(-c2c3ccccc3nn2Cc2ccccc2)cc1` [Compound 26, 2-Benzyl-3-(4-methylphenyl)-2H-indazole], the melting point lay within 110.7 to 111.3 °C. Besides, in series [2], the “anti-angiogenic activity in Matrigel plug assay (hemoglobin concentration)” value is reported as “significant anti-angiogenic activities”. Also, in series [1] (10 μM, FIG. 6), the “inhibitory effect” value is reported as “significant inhibitory effect”. The “inhibitory effect” value in series [1] (30 μM, FIG. 5) is given as “significant inhibitory effect”. In addition, the “blockage” value in series [3] was “significant blockage”.

`CCOC(=O)c1ccc(-c2c3ccccc3nn2Cc2ccccc2)cc1` [Compound 28, Ethyl 4-(2-benzyl-2H-indazol-3-yl)benzoate]: the melting point lay within 112 to 113 °C.

`COC(=O)c1ccc(-c2nn(Cc3ccc(F)cc3)c3ccccc23)cc1` [Compound 29, Methyl 4-[1-(4-fluorobenzyl)-1H-indazol-3-yl]benzoate]: the melting point is 118 to 120 °C.

The compound `COC(=O)c1ccc(-c2c3ccccc3nn2Cc2ccc(F)cc2)cc1` [Compound 30, Methyl 4-[2-(4-fluorobenzyl)-2H-indazol-3-yl]benzoate] had a melting point of 121 to 122 °C.

For `CCOC(=O)c1ccc(-c2nn(Cc3ccccc3F)c3ccccc23)cc1` [Compound 31, Ethyl 4-[1-(2-fluorobenzyl)-1H-indazol-3-yl]benzoate], the melting point lay within 102 to 103 °C.

As for `CCOC(=O)c1ccc(-c2c3ccccc3nn2Cc2ccccc2F)cc1` [Compound 32, Ethyl 4-[2-(2-fluorobenzyl)-2H-indazol-3-yl]benzoate], the melting point was in the range of 94 to 96 °C.

As to `COC(=O)c1ccc(-c2nn(Cc3ccco3)c3ccccc23)cc1` [Compound 33, Methyl 4-[1-(2-furylmethyl)-1H-indazol-3-yl]benzoate], the melting point fell in the range of 99 to 101 °C.

For the compound `COC(=O)c1ccc(-c2c3ccccc3nn2Cc2ccco2)cc1` [Compound 34, Methyl 4-[2-(2-furylmethyl)-2H-indazol-3-yl]benzoate], the melting point was 140 to 143 °C.

As to `O=C(O)c1ccc(-c2c3ccccc3nn2Cc2ccccc2)cc1` [Compound 35, 4-(2-Benzyl-2H-indazol-3-yl)benzoic acid], the melting point is 159 to 163 °C.

Compound `O=C(O)c1ccc(-c2c3ccccc3nn2Cc2ccc(F)cc2)cc1` [Compound 36, 4-[2-(4-Fluorobenzyl)-2H-indazol-3-yl]benzoic acid] returned a melting point of 237 to 239 °C.

For `O=C(NO)c1ccc(-c2c3ccccc3nn2Cc2ccccc2)cc1` [Compound 38, 4-(2-Benzyl-2H-indazol-3-yl)-N-hydroxybenzamide], the melting point is 201 to 203 °C.

`OCc1ccc(-c2c3ccccc3nn2Cc2ccccc2)cc1` [Compound 39, [4-(2-Benzyl-2H-indazol-3-yl)phenyl]methanol] had a melting point of 148 to 149 °C.

Take `OCc1ccc(-c2c3ccccc3nn2Cc2ccco2)cc1` [Compound 40, {4-[2-(2-Furylmethyl)-2H-indazol-3-yl]phenyl]methanol]: the melting point was in the range of 129 to 130 °C.
